Assay results as given in the NIST ThermoML archive (doi:10.1016/j.jct.2008.07.010).

Assay: xn = mol fraction of the nth substance listed
Settings: 101 kPa, Liquid; for viscosity: Capillary tube (Ostwald / Ubbelohde) method; for speed of sound: Sing-around technique in a fixed-path interferometer; for mass density: Vibrating tube method

CC(C)CCCC(C)CCCC(C)CCCCC(C)CCCC(C)CCCC(C)C (stereo not given) [2,6,10,15,19,23-hexamethyltetracosane] + CC(C)O
Settings | mass density, 298.15 K [kg/m3] | mass density, 303.15 K [kg/m3] | mass density, 308.15 K [kg/m3] | speed of sound, 298.15 K [m/s] | speed of sound, 303.15 K [m/s] | speed of sound, 308.15 K [m/s] | viscosity, 298.15 K [mPa·s] | viscosity, 303.15 K [mPa·s] | viscosity, 308.15 K [mPa·s]
x2 = 0 | 805.122 | 801.912 | 798.709 | 1381.9 | 1364.1 | 1346.5 | 28.26 | 22.09 | 17.77
x2 = 0.0621 | 804.504 | 801.238 | 797.982 | 1377.4 | 1359.1 | 1341.4 | 24.12 | 18.75 | 15.29
x2 = 0.0949 | 804.196 | 800.909 | 797.625 | 1374.9 | 1356.8 | 1338.9 | 22.69 | 17.69 | 14.48
x2 = 0.1438 | 803.771 | 800.451 | 797.133 | 1371.4 | 1353.3 | 1335.5 | 21.22 | 16.63 | 13.66
x2 = 0.218 | 803.155 | 799.796 | 796.425 | 1366 | 1347.9 | 1330 | 19.65 | 15.45 | 12.74
x2 = 0.2865 | 802.572 | 799.185 | 795.767 | 1360.2 | 1342.2 | 1324.2 | 18.5 | 14.56 | 12.03
x2 = 0.3119 | 802.336 | 798.955 | 795.521 | 1358.2 | 1340 | 1321.9 | 18.11 | 14.24 | 11.76
x2 = 0.4022 | 801.467 | 798.03 | 794.563 | 1349.5 | 1331.3 | 1313.3 | 16.68 | 13.05 | 10.84
x2 = 0.5142 | 800.109 | 796.619 | 793.069 | 1336.4 | 1318.1 | 1299.9 | 14.34 | 11.37 | 9.424
x2 = 0.5952 | 798.83 | 795.275 | 791.676 | 1324.5 | 1306.4 | 1288.1 | 11.77 | 9.455 | 7.904

CCCCCCCCCCCCCCCC [hexadecane] + CC(C)O
Settings | mass density, 298.15 K [kg/m3] | mass density, 303.15 K [kg/m3] | mass density, 308.15 K [kg/m3] | speed of sound, 298.15 K [m/s] | speed of sound, 303.15 K [m/s] | speed of sound, 308.15 K [m/s] | viscosity, 298.15 K [mPa·s] | viscosity, 303.15 K [mPa·s] | viscosity, 308.15 K [mPa·s]
x2 = 0 | 770.456 | 766.981 | 763.52 | 1338.6 | 1320 | 1301.7 | 3.041 | 2.706 | 2.409
x2 = 0.0441 | 770.067 | 766.622 | 763.106 | 1334.2 | 1315.5 | 1297.1 | 2.867 | 2.521 | 2.231
x2 = 0.1285 | 769.792 | 766.198 | 762.606 | 1325.5 | 1306.8 | 1288.2 | 2.654 | 2.312 | 2.034
x2 = 0.1617 | 769.728 | 766.093 | 762.479 | 1321.8 | 1302.9 | 1284.7 | 2.601 | 2.264 | 1.989
x2 = 0.2294 | 769.59 | 765.938 | 762.287 | 1314.8 | 1295.9 | 1277.2 | 2.531 | 2.214 | 1.944
x2 = 0.2707 | 769.56 | 765.896 | 762.206 | 1310.1 | 1291.2 | 1272.5 | 2.504 | 2.199 | 1.928
x2 = 0.332 | 769.565 | 765.88 | 762.156 | 1303.1 | 1284.1 | 1265.6 | 2.47 | 2.176 | 1.92
x2 = 0.414 | 769.697 | 765.976 | 762.174 | 1293.5 | 1274.5 | 1255.6 | 2.43 | 2.153 | 1.904
x2 = 0.5064 | 770.039 | 766.23 | 762.374 | 1280.3 | 1261.3 | 1242.7 | 2.36 | 2.08 | 1.843
x2 = 0.6119 | 770.701 | 766.793 | 762.751 | 1263.2 | 1244.4 | 1225.5 | 2.242 | 1.95 | 1.719
x2 = 0.7008 | 771.594 | 767.564 | 763.551 | 1245.9 | 1227.1 | 1208.2 | 2.123 | 1.821 | 1.599
x2 = 0.762 | 772.47 | 768.35 | 764.298 | 1231.6 | 1212.9 | 1194 | 2.051 | 1.723 | 1.51
x2 = 0.8419 | 774.082 | 769.888 | 765.761 | 1208.4 | 1189.9 | 1171.2 | 1.974 | 1.628 | 1.418
x2 = 0.9188 | 776.284 | 772.263 | 768.061 | 1180 | 1161.6 | 1143.6 | 1.96 | 1.608 | 1.419
x2 = 0.9498 | 777.915 | 773.694 | 769.382 | 1166.2 | 1148.3 | 1130.3 | 1.983 | 1.647 | 1.454
